Drawing on PubChem BioAssay (NCI), this text covers TGI for eight molecules.

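Tested at 5 concentrations; 48 h exposure; 96-well plates; endpoints linearly interpolated, else capped at highest concentration. At the TGI there is no net growth.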 Where only a bound is given, the exact number is not on record here.

Some test systems named below: NCI-H522 lung; SF-539 CNS; OVCAR-4 ovarian; PC-3 prostate; HCC-2998 colon; ACHN renal; SK-MEL-2 melanoma; MDA-MB-231 breast; SR leukemia; NCI-H23 lung; TK-10 renal; M14 melanoma; MCF7 breast; T-47D breast; DU-145 prostate; MDA-MB-435; LOX IMVI melanoma; CCRF-CEM leukemia; MDA-N.
Test in all cases: NCI tumour cell line growth inhibition, 48 h

In the case of `CCOC(=O)[C@]12C(=C(c3ccccc3)O[C@H]3C=CCC[C@H]31)C(=O)C(=O)N2c1ccccc1`, the TGI in the test on NCI-H522 lung, in the test with SF-539 CNS, with OVCAR-4 ovarian, in the test on PC-3 prostate, in the test with HCC-2998 colon and in the test with ACHN renal was over 100 µM in each case. The TGI is over 100 µM in the test with SK-MEL-2 melanoma; over 100 µM in the test with MDA-MB-231 breast; 46.8 µM in the test on SR leukemia; over 100 µM in the test with NCI-H23 lung; over 100 µM in the test on TK-10 renal; over 100 µM with M14 melanoma. The TGI with MCF7 breast, in the test on T-47D breast and in the test on DU-145 prostate was over 100 µM each time.

Consider `N#Cc1c2c(c(Nc3cccc(C(F)(F)F)c3)n3c1nc1ccccc13)CCC2`, for which the TGI with NCI-H522 lung, with SF-539 CNS, with OVCAR-4 ovarian, in the test on ACHN renal, in the test with MDA-MB-231 breast and with NCI-H23 lung was over 100 µM each time. Further, the TGI in the test with TK-10 renal, with T-47D breast, in the test with MDA-MB-435, with LOX IMVI melanoma and with DU-145 prostate was over 100 µM each time.

For `O=[N+]([O-])c1ccc2[nH]nc(OCc3ccccn3)c2c1`, the TGI in the test with NCI-H522 lung, with CCRF-CEM leukemia, in the test with SF-539 CNS, in the test on OVCAR-4 ovarian, in the test with PC-3 prostate and with HCC-2998 colon was over 100 µM each time. Besides, the TGI in the test on ACHN renal, in the test on SK-MEL-2 melanoma, in the test with MDA-MB-231 breast, in the test with SR leukemia, with NCI-H23 lung and in the test on TK-10 renal was over 100 µM in each case. The TGI in the test with M14 melanoma, with T-47D breast, in the test with MDA-MB-435, in the test with MDA-N, in the test on LOX IMVI melanoma and in the test on DU-145 prostate was over 100 µM in each case.

Consider `C=[N+](CNC(=O)CNC(=O)C(Cc1ccc([N+](=O)[O-])cc1)NC(=O)OC(C)(C)C)C(=O)CNC(=O)C(Cc1ccc([N+](=O)[O-])cc1)NC(=O)OC(C)(C)C` (centres undefined), for which the TGI in the test on NCI-H522 lung was 79.8 µM; in the test on SF-539 CNS, 57.9 µM; in the test with OVCAR-4 ovarian, over 100 µM; in the test on PC-3 prostate, over 100 µM; in the test with HCC-2998 colon, over 100 µM; in the test with ACHN renal, over 100 µM. Moreover, the TGI with MDA-MB-231 breast is 59 µM; in the test with SR leukemia, 80.6 µM; in the test with NCI-H23 lung, over 100 µM; in the test on TK-10 renal, over 100 µM; in the test on M14 melanoma, over 100 µM; in the test on MCF7 breast, over 100 µM. Further, the TGI is 62.7 µM in the test with MDA-MB-435, 33.4 µM in the test on LOX IMVI melanoma and over 100 µM in the test on DU-145 prostate.

As for `O=C1NC(=O)C(CC(C(=O)C(=O)Nc2ccccc2Cl)C(=O)c2ccc3ccccc3c2)C(=O)N1` (centres undefined), the TGI in the test with NCI-H522 lung, in the test on CCRF-CEM leukemia, in the test with SF-539 CNS, in the test with OVCAR-4 ovarian, in the test with PC-3 prostate and in the test on HCC-2998 colon was over 100 µM in each case. Besides, the TGI in the test with ACHN renal, in the test with SK-MEL-2 melanoma, with MDA-MB-231 breast, in the test with NCI-H23 lung, in the test on TK-10 renal and in the test with M14 melanoma was over 100 µM throughout. Also, the TGI with MCF7 breast, with MDA-MB-435, with MDA-N, in the test on LOX IMVI melanoma and in the test with DU-145 prostate was over 100 µM each time.

In the case of `COC(=O)C(C)(C)OCc1ccc(C2NC(=O)N(c3cccc(Cl)c3)C(=O)N2c2cccc(Cl)c2)cc1` (centres undefined), the TGI in the test on NCI-H522 lung is 76.8 µM; in the test on CCRF-CEM leukemia, over 100 µM; in the test with SF-539 CNS, over 100 µM; with OVCAR-4 ovarian, over 100 µM; with PC-3 prostate, over 100 µM; with HCC-2998 colon it was over 100 µM. Also, the TGI in the test with ACHN renal was over 100 µM; in the test on SK-MEL-2 melanoma, over 100 µM; in the test on MDA-MB-231 breast it was over 100 µM; in the test on SR leukemia it was 96.6 µM; in the test on NCI-H23 lung, 22.1 µM; with M14 melanoma, over 100 µM. The TGI with MCF7 breast, in the test with MDA-MB-435, in the test with MDA-N and in the test on DU-145 prostate was over 100 µM throughout.

Regarding `CCOC(O)(NC(=O)C(C(F)(F)F)C(F)(F)F)C(F)(F)F` (centres undefined), the TGI in the test on CCRF-CEM leukemia, in the test on SF-539 CNS, in the test with PC-3 prostate, in the test with HCC-2998 colon, in the test on ACHN renal and with SK-MEL-2 melanoma was over 100 µM each time. The TGI with SR leukemia, in the test on NCI-H23 lung, with TK-10 renal, in the test on M14 melanoma, in the test on T-47D breast and with MDA-MB-435 was over 100 µM throughout. In addition, the TGI with MDA-N and with LOX IMVI melanoma was over 100 µM in each case.

For the molecule `c1ccc2c(c1)Nc1ccccc1[P+]21c2ccccc2Nc2ccccc21`, the TGI was 0.728 µM in the test with NCI-H522 lung; 0.85 µM with CCRF-CEM leukemia; 0.817 µM with SF-539 CNS; over 32.5 µM in the test with OVCAR-4 ovarian; 0.609 µM in the test on PC-3 prostate; 2.44 µM in the test on HCC-2998 colon. The TGI with ACHN renal was found to be 9.29 µM; with SK-MEL-2 melanoma, 0.482 µM; with MDA-MB-231 breast, 0.588 µM; in the test with SR leukemia, 1.4 µM; in the test with NCI-H23 lung it was 0.83 µM; with TK-10 renal, 5.93 µM. Further, the TGI in the test with M14 melanoma is 2.23 µM; with T-47D breast, 1.91 µM; in the test on MDA-MB-435, 1.27 µM; with MDA-N, 1.11 µM; in the test with LOX IMVI melanoma it was 2.23 µM; in the test on DU-145 prostate, 3.46 µM.
